Drawing on patent publication US8324390B2, “Tetrazole-substituted anthranilamides as pesticides” (Bayer CropScience AG, priority 2008, dated 2012), this text covers chromatographic logP and pest or weed control for 28 molecules.

A short description of data set [1]: log P determination by HPLC (EEC Directive 79/831 Annex V.A8). The class given is physicochemical. As for the experimental part: The measurements were carried out using an Agilent 1100 LC system with a 50*4.6 Zorbax Eclipse C18 1.8 μm column (oven temperature 55° C., flow rate 2.0 ml/min).
The following mobile phases were used:
Mobile phase A: acetonitrile+1000 μl of formic acid/l
Mobile phase B: Millipore water+900 μl of formic acid/l

Data set [2] relates to caterpillars of the armyworm (Spodoptera frugiperda). The data set is described as follows: Spodoptera frugiperda test (SPODFR spray treatment). The class given is in vivo. As to conditions: Spodoptera frugiperda, foliar, read-out: effect in % (caterpillars killed). The source says: (§1) Solvent: 78.0 parts by weight of acetone
Data set [3] deals with green peach aphid (Myzus persicae). The data set is described as follows: Myzus test (MYZUPE spray treatment). The settings on record: Myzus persicae, foliar, read-out: effect in % (aphids killed). Type of data set: in vivo.
Source text: Solvent: 78 parts by weight of acetone
as §1

Data set [4] concerns larvae of the mustard beetle (Phaedon cochleariae). The data set is described as follows: Phaedon test (PHAECO spray treatment). As to conditions: Phaedon cochleariae, in Brassica rapa, foliar, read-out: effect in % (beetle larvae killed).
[5] abbreviates: reversed-phase HPLC, Zorbax Eclipse C18 column, by HPLC according to EEC Directive 79/831 Annex V.A8, read-out: log P.
Where [6] appears, read: application rate 100 g/ha, maize leaf discs.
[7] abbreviates: application rate 100 g/ha, Chinese cabbage leaf discs.
Setting [8] is: reversed-phase HPLC, Zorbax Eclipse C18 column, determined by HPLC according to EEC Directive 79/831 Annex V.A8, read-out: log P.

Read-outs that look alike come from different tables or passages of the source.

`Cc1cc(C#N)cc(C(=O)NC2CC2)c1NC(=O)c1cc(Cn2nnnc2C(F)(F)F)nn1-c1ncccc1Cl` [Example 166] returned a chromatographic logP in data set [1] (log P) of 2.53. Also, the pest or weed control at 100 g/ha in data set [2] (in Zea mays), in data set [3] (in Brassica rapa) and in data set [4] was no less than 80% each time.

With `CNC(=O)c1cc(C#N)cc(C)c1NC(=O)c1cc(Cn2nnc(C(F)(F)F)n2)nn1-c1c(Cl)cccc1Cl` [Example 312], the chromatographic logP in data set [1] (setting [5]) amounted to 3.28. In addition, the pest or weed control at 100 g/ha in data set [2] (setting [6]), in data set [3] (setting [7]) and in data set [4] was no less than 80% each time.

In data set [1] (log P), `C=C(C)CNC(=O)c1cc(Cl)cc(C)c1NC(=O)c1cc(Cn2nnc(C(F)(F)F)n2)nn1-c1ncccc1Cl` [Example 337] had a chromatographic logP of 3.62. Besides, the pest or weed control at 100 g/ha in data set [2] (in Zea mays), in data set [3] (in Brassica rapa) and in data set [4] was no less than 80% throughout.

Regarding `Cc1cc(C#N)cc(C(=O)NC2(C)CCC2)c1NC(=O)c1cc(Cn2nnc(C(F)(F)F)n2)nn1-c1ncccc1Cl` [Example 89], in data set [1] (log P), the chromatographic logP worked out at 3.46. The pest or weed control at 100 g/ha in data set [2] (in Zea mays), in data set [3] (in Brassica rapa) and in data set [4] was no less than 80% throughout.

For `CNC(=O)c1cc(Br)cc(C)c1NC(=O)c1cc(Cn2nnc(C(F)(F)F)n2)nn1-c1ncccc1Br` [Example 354], the chromatographic logP in data set [1] (setting [5]) was found to be 3.12. Besides, the pest or weed control at 100 g/ha in data set [2] (setting [6]), in data set [3] (setting [7]) and in data set [4] was no less than 80% throughout.

Turning to `Cc1cc(C#N)cc(C(=O)NC(C)C)c1NC(=O)c1cc(Cn2nnnc2C(F)F)nn1-c1ncccc1Cl` [Example 463], in data set [1] (log P), the chromatographic logP worked out at 2.36. Moreover, the pest or weed control at 100 g/ha in data set [2] (in Zea mays), in data set [3] (in Brassica rapa) and in data set [4] was no less than 80% in each case.

Regarding `CCNC(=O)c1cc(C#N)cc(C)c1NC(=O)c1cc(Cn2nnc(C(F)F)n2)nn1-c1ncccc1Cl` [Example 265], the chromatographic logP in data set [1] (log P) turned out to be 2.36. Besides, the pest or weed control at 100 g/ha in data set [2] (in Zea mays), in data set [3] (in Brassica rapa) and in data set [4] was no less than 80% throughout.

Regarding `Cc1cc(F)cc(C(N)=O)c1NC(=O)c1cc(Cn2nnc(C(F)(F)F)n2)nn1-c1ncccc1Cl` [Example 45], the chromatographic logP in data set [1] (log P) amounted to 2.46. The pest or weed control at 100 g/ha in data set [2] (in Zea mays), in data set [3] (in Brassica rapa) and in data set [4] was no less than 80% each time.

Regarding `CCNC(=O)c1cc(C#N)cc(C)c1NC(=O)c1cc(Cn2nnc(C(F)(F)C(F)(F)F)n2)nn1-c1ccccc1Cl` [Example 532], the chromatographic logP in data set [1] (setting [8]) turned out to be 3.87. The pest or weed control at 100 g/ha in data set [2] (setting [6]), in data set [3] (setting [7]) and in data set [4] was no less than 80% in each case.

Turning to `Cc1cc(Cl)cc(C(=O)NC(C)(C)C)c1NC(=O)c1cc(Cn2nnc(C(F)(F)F)n2)nn1-c1ncccc1C(F)(F)F` [Example 224], in data set [1] (setting [5]), the chromatographic logP was determined as 4. Moreover, the pest or weed control at 100 g/ha in data set [2] (setting [6]), in data set [3] (setting [7]) and in data set [4] was no less than 80% each time.

In data set [1] (log P), `Cc1cc(Cl)cc(C(=O)NCC#N)c1NC(=O)c1cc(Cn2nnc(C(F)(F)F)n2)nn1-c1ncccc1Cl` [Example 19] displayed a chromatographic logP of 2.93. The pest or weed control at 100 g/ha in data set [2] (in Zea mays), in data set [3] (in Brassica rapa) and in data set [4] was no less than 80% in each case.

In the case of `O=C(NC1CC1)c1cc(Cl)cc(Cl)c1NC(=O)c1cc(Cn2nnc(C(F)(C(F)(F)F)C(F)(F)F)n2)nn1-c1ncccc1Cl` [Example 339], the chromatographic logP in data set [1] (log P) came to 3.89. In addition, the pest or weed control at 100 g/ha in data set [2] (in Zea mays), in data set [3] (in Brassica rapa) and in data set [4] was no less than 80% throughout.

`Cc1cc(C#N)cc(C(=O)NC(C)(C)C)c1NC(=O)c1cc(Cn2nnc(C(F)(F)F)n2)nn1-c1ncccc1Cl` [Example 15] displayed a chromatographic logP in data set [1] (log P) of 3.4. Further, the pest or weed control at 100 g/ha in data set [2] (in Zea mays), in data set [3] (in Brassica rapa) and in data set [4] was no less than 80% throughout.

Regarding `Cc1cc(C#N)cc(C(=O)NC(C)(C)C)c1NC(=O)c1cc(Cn2nnnc2C(F)(F)C(F)(F)F)nn1-c1ncccc1Br` [Example 518], in data set [1] (setting [8]), the chromatographic logP came to 3.47. Further, the pest or weed control at 100 g/ha in data set [2] (setting [6]), in data set [3] (setting [7]) and in data set [4] was no less than 80% in each case.

In the case of `Cc1cc(Cl)cc(C(=O)NC(C)C2CC2)c1NC(=O)c1cc(Cn2nnc(C(F)(F)F)n2)nn1-c1ncccc1Cl` (stereo not shown) [Example 30], the chromatographic logP in data set [1] (log P) was found to be 3.79. Moreover, the pest or weed control at 100 g/ha in data set [2] (in Zea mays), in data set [3] (in Brassica rapa) and in data set [4] was no less than 80% in each case.

The molecule `Cc1cc(Cl)cc(C(=O)NC2CC2)c1NC(=O)c1cc(Cn2nnnc2C(F)(F)C(F)(F)F)nn1-c1ncccc1Cl` [Example 200] showed a chromatographic logP in data set [1] (log P) of 3.32. Further, the pest or weed control at 100 g/ha in data set [2] (in Zea mays), in data set [3] (in Brassica rapa) and in data set [4] was no less than 80% throughout.

Take `N#CCNC(=O)c1cc(Cl)cc(Cl)c1NC(=O)c1cc(Cn2nnc(C(F)(F)F)n2)nn1-c1ncccc1Cl` [Example 59]: the chromatographic logP in data set [1] (log P) was found to be 2.92. For the same molecule, the pest or weed control at 100 g/ha in data set [2] (in Zea mays), in data set [3] (in Brassica rapa) and in data set [4] was no less than 80% in each case.

In turn, `CNC(=O)c1cc(C#N)cc(C)c1NC(=O)c1cc(Cn2nnnc2C(F)(F)C(F)(F)F)nn1-c1ncccc1Cl` [Example 444] had a chromatographic logP in data set [1] (log P) of 2.73. In addition, the pest or weed control at 100 g/ha in data set [2] (in Zea mays), in data set [3] (in Brassica rapa) and in data set [4] was no less than 80% throughout.

For the molecule `Cc1cc(C#N)cc(C(=O)NCC(C)C)c1NC(=O)c1cc(Cn2nnc(C(F)(F)F)n2)nn1-c1ccccc1Cl` [Example 533], the chromatographic logP in data set [1] (setting [8]) was determined as 3.84. Further, the pest or weed control at 100 g/ha in data set [2] (setting [6]), in data set [3] (setting [7]) and in data set [4] was no less than 80% each time.

Turning to `CNC(=O)c1cc(C#N)cc(C)c1NC(=O)c1cc(Cn2nnc(C(F)(F)F)n2)nn1-c1ncccc1F` [Example 405], the chromatographic logP in data set [1] (setting [8]) came out at 2.46. Besides, the pest or weed control at 100 g/ha in data set [2] (setting [6]), in data set [3] (setting [7]) and in data set [4] was no less than 80% throughout.

For the molecule `Cc1cc(C#N)cc(C(=O)NCCC(F)(F)F)c1NC(=O)c1cc(Cn2nnc(C(F)(F)F)n2)nn1-c1ncccc1Cl` [Example 159], the chromatographic logP in data set [1] (log P) was determined as 3.22. The pest or weed control at 100 g/ha in data set [2] (in Zea mays), in data set [3] (in Brassica rapa) and in data set [4] was no less than 80% in each case.

`Cc1cc(C#N)cc(C(=O)NCc2ccco2)c1NC(=O)c1cc(Cn2nnc(C(F)(F)F)n2)nn1-c1ncccc1Cl` [Example 77] had a chromatographic logP in data set [1] (log P) of 3.14. Besides, the pest or weed control at 100 g/ha in data set [2] (in Zea mays), in data set [3] (in Brassica rapa) and in data set [4] was no less than 80% in each case.

In turn, `CCNC(=O)c1cc(C#N)cc(C)c1NC(=O)c1cc(C(C)n2nnnc2C(F)(F)F)nn1-c1ncccc1Cl` (stereo not shown) [Example 521] had a chromatographic logP in data set [1] (log P) of 2.74. The pest or weed control at 100 g/ha in data set [2] (in Zea mays), in data set [3] (in Brassica rapa) and in data set [4] was no less than 80% each time.

`Cc1cc(Br)cc(C(=O)NC2CC2)c1NC(=O)c1cc(Cn2nnc(C(F)(F)F)n2)nn1-c1ncccc1Cl` [Example 26] registered a chromatographic logP in data set [1] (log P) of 3.3. Further, the pest or weed control at 100 g/ha in data set [2] (in Zea mays), in data set [3] (in Brassica rapa) and in data set [4] was no less than 80% throughout.

For `NC(=O)c1cc(Cl)cc(Cl)c1NC(=O)c1cc(Cn2nnc(C(F)(C(F)(F)F)C(F)(F)F)n2)nn1-c1ncccc1Cl` [Example 391], the chromatographic logP in data set [1] (log P) was 3.41. Also, the pest or weed control at 100 g/ha in data set [2] (in Zea mays), in data set [3] (in Brassica rapa) and in data set [4] was no less than 80% each time.

Molecule `Cc1cc(C#N)cc(C(=O)NC(C)C)c1NC(=O)c1cc(C(C)n2nnc(C(F)(F)F)n2)nn1-c1ncccc1Cl` (stereo not shown) [Example 438] came in with a chromatographic logP in data set [1] (log P) of 3.35. For the same molecule, the pest or weed control at 100 g/ha in data set [2] (in Zea mays), in data set [3] (in Brassica rapa) and in data set [4] was no less than 80% each time.

As for `Cc1cc(C#N)cc(C(=O)NCC#N)c1NC(=O)c1cc(Cn2nnc(C(F)(F)F)n2)nn1-c1ccccc1Cl` [Example 540], the chromatographic logP in data set [1] (setting [8]) was determined as 2.97. For the same molecule, the pest or weed control at 100 g/ha in data set [2] (setting [6]), in data set [3] (setting [7]) and in data set [4] was no less than 80% in each case.

With `Cc1cc(I)cc(C(=O)NC2CC2)c1NC(=O)c1cc(Cn2nnnc2C(F)(F)F)nn1-c1ncccc1Br` [Example 495], the chromatographic logP in data set [1] (setting [8]) turned out to be 3.11. Also, the pest or weed control at 100 g/ha in data set [2] (setting [6]), in data set [3] (setting [7]) and in data set [4] was no less than 80% in each case.
